From patent US5183896A, “Derivatives of 1,2,5,6-tetrahydropyridin-3-carboxaldehyde oxime” (Roussel Uclaf, priority 1990, dated 1993)
Where two headings read alike, the source gives them in different places.

Experiments:
[1] = system: male mice (CD1 Charles Rivers); assay: Diarrheic activity, oral; format: in vivo, mouse
Procedure: The test is carried out on male mice (CD1 Charles Rivers) weighing 25 to 30 g, which have gone without food for 6 hours. The product dissolved at 5% in methocel is administered by oral route, using a probang.
The control animals receive only the excipient.
After treatment, the animals are put separately in cages. The bottoms of the cages are covered with blotting paper and are observed at 30, 60, 120 and 180 minute intervals.
The absorbent sheets of paper are changed after each observation.
The consistency of the faeces is evaluated according to the method of Randall and Baruth (Arch. Int. Pharmacodyn. 220, 94, 1976) by following the scale of the following values:
1: slightly soft feces with or without moist ring,
2: slightly soft feces with presence of a well-defined moist circle,
3: soft feces with presence of a large moist circle,
4 feces without consistency with presence of a very large moist circle.
For each product, the dose was noted which caused diarrhoea in 50% of the animals according to the method of Miller and Tainter (Proc. Soc. Exp. Biol. Med., 57 261, 1944).

[2] = system: male mice (CD1 Charles Rivers); assay: Duration of hypothermic action: variations in body temperature; format: in vivo, mouse; details: 180 min
[3] = system: male mice (CD1 Charles Rivers); assay: Hypothermic activity: dose reducing body temperature by 1° C.; format: in vivo; details: Mus musculus, read-out: Effective dose (-1° C.)
Procedure: (§1) The test is carried out on male mice (CD1 Charles Rivers) weighing 25 to 30 g, which have gone without food for 6 hours.
(§2) The body temperature is noted using a thermocouple placed about […] inside the rectum and connected to an electrical temperature recorder.
(§3) The products are administered by oral or sub-cutaneous route and the temperatures are noted at 0 and 30 minutes, 1 hour, 2 hours and 2 and a half hours after treatment.
(§4) The degree of hypothermia is evaluated as the difference between the treated animals and the control animals and the dose necessary to reduce the body temperature by 1° C. is determined.

[4] = system: male mice (CD1 Charles Rivers); assay: Duration of hypothermic action: variations in body temperature; format: in vivo, mouse
Procedure: as §1, §2, §3, §4
The duration of action of the products is determined by using doses which can reduce the temperature by 1.5° C. to 1.7° C.

[5] = system: isolated ileum of a guinea pig; assay: Test of the isolated ileum of a guinea pig (agonist contraction); details: Cavia porcellus, Tyrode solution, 37° C., read-out: pD2 (negative logarithm of the dose which produces 50% of the maximum effect) (converted)
Procedure: 1Test of the isolated ileum of a guinea pig
Ileum fragments are removed from a guinea-pig killed by decapitation. The isolated ileum is placed in 10 cm^3 of Tyrode solution at 37° C. and aerated by a mixture of oxygen (95%) and carbon dioxide (5%). Contractions caused by the products are recorded using a sensor connected to a polygraph. The products under test are added, at concentrations comprised between 1.10^-3 M and 1.10^-8 M/1.
The products showing a contracturating effect are tested relative to atropine and hexamethonium in order to establish whether the activity is of "muscarinic" or "nicotinic" type.
The agonist activity is expressed in pD2 (negative logarithm of the dose which produces 50% of the maximum effect).

Solubility = format: physicochemical; details: for solubility in water: H2O
[6] = Acute toxicity, oral, mortality over 7 days; details: mouse, in vivo, male mice
Procedure: The test is carried out on male mice (CD1 Charles Rivers) weighing 22 to 24 g, which have gone without food for 16 hours. […] The mortality is noted over the 7 days following the treatment.

[7] = system: patients who have a memory deficiency; details: intravenous route; cited from earlier work
[8] = system: central cholinergic system; details: cited from earlier work

Row | SMILES | DE50 (dose which caused diarrhoea in 50% of the animals) [1] [mg/kg] | ED (-1 C body temperature) ([3]; SC route) [mg/kg] | ED (-1 C body temperature) ([3]; oral route) [mg/kg] | EC50 [5] [nM] | solubility in 2N HCl (Solubility) | solubility in 2N NaOH (Solubility) | solubility in water (Solubility) | also measured
1 | COC(=O)C1=CCCN(C)C1 [Arecoline, HBr, reference compound] | 35 | 3 | 190 | 126 |  |  |  | Variation in body temperature ([2]; 3.5 mg/kg, sc): +0.2 °C; Variation in body temperature ([4]; 3.5 mg/kg, sc, 0 min): -0.1 °C; Variation in body temperature ([4]; 3.5 mg/kg, sc, 30 min): -1.5 °C; Variation in body temperature ([4]; 3.5 mg/kg, sc, 60 min): -0.1 °C; Variation in body temperature ([4]; 3.5 mg/kg, sc, 120 min): +0.2 °C
2 | CCN(CC)C(=O)COC(=O)N1CCC=C(C=NOC)C1 [Example 2, (diethylaminocarbonyl) methyl 3-(methoxyiminomethyl)-1,2,5,6-tetrahydropyridine-1-carboxylate] |  |  |  |  | insoluble | insoluble | insoluble | 
3 | C=CCN(CC=C)C(=O)COC(=O)N1CCC=C(C=NOC)C1 [Example 3, (di(2-propenyl)-aminocarbon-yl)-methyl 3-(methoxyiminomethyl)-1,2,5,6-tetrahydropyridine-1-carboxylate] | > 50 | 8 | 9 | > 100000 | insoluble | insoluble | insoluble | Variation in body temperature ([2]; 15 mg/kg, os): +0.1 °C; LD50 at 168 h [6]: 500 mg/kg; Variation in body temperature ([4]; 12 mg/kg, sc, 30 min): -0.9 °C; Variation in body temperature ([4]; 12 mg/kg, sc, 60 min): -1.6 °C; Variation in body temperature ([4]; 12 mg/kg, sc, 120 min): -0.6 °C; Variation in body temperature ([4]; 15 mg/kg, os, 0 min): +0.1 °C; Variation in body temperature ([4]; 15 mg/kg, os, 30 min): -1.3 °C; Variation in body temperature ([4]; 15 mg/kg, os, 60 min): -1.7 °C; Variation in body temperature ([4]; 15 mg/kg, os, 120 min): -0.5 °C
4 | CON=CC1=CCCN(C(=O)OCC(=O)N2CCCCC2)C1 [Example 4, (1-piperidinylcarbonyl)-methyl 3-(methoxyiminomethyl)-1,2,5,6-tetrahydropyridine-1-carboxylate] |  |  |  |  | insoluble | insoluble | insoluble | 
5 | CON=CC1=CCCN(C(=O)OCC(=O)N2CCN(C)CC2)C1 [Example 5, (4 methyl-1-piperazinyl)-carbonylmethyl 3-(methoxyiminomethyl)-1,2,5,6-tetrahydropyridine-1-carboxylate] |  |  |  |  | soluble | insoluble | soluble | 
6 | COC(=O)C1=CCCN(C)C1 [arecoline] |  |  |  |  |  |  |  | effect on patients who have a memory deficiency [7]: positive effect; duration of action ([8]; in vivo): short-term action; activity by oral route ([8]; oral route): very weak activity by oral route
